# From patent US20110086759A1, “CHEMICAL COMPOUNDS” (SYNGENTA CROP PROTECTION, INC., priority 2007, published 2011)
# Experiments:
# Type in all cases: in vivo
# [1] = test system: Amaranthus retoflexus (AMARE); test: Post-emergence biological efficacy, glasshouse pot test; settings: Amaranthus retroflexus, 312 h; Rate 1,000 g/ha; post-emergence spray; evaluated after 13 days (100=total damage to plant; 0=no damage to plant); read-out: Percentage damage caused to weed species, post-emergence, AMARE
# How it was run: (§1)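 Plants were sown in standard soil and grown 8 days in a glasshouse (24/16° C. day/night, 14 hours light, 65% humidity), then sprayed post-emergence at 1000 or 250 g/ha from acetone/water (50:50) with 0.5% Tween 20. Damage was scored visually after 13 days (0 = none, 100 = total).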
# [2] = test system: Alopecurus myosuroides (ALOMY); test: as above; settings: 312 h, Rate 1,000 g/ha, post-emergence spray, evaluated after 13 days (100=total damage to plant; 0=no damage to plant), read-out: Percentage damage caused to weed species, post-emergence, ALOMY
# How it was run: as §1
# Setaria faberi (SETFA) [3] = test: as above; settings: 312 h, Rate 1,000 g/ha, post-emergence spray, evaluated after 13 days (100=total damage to plant; 0=no damage to plant), read-out: Percentage damage caused to weed species, post-emergence, SETFA
# How it was run: as §1
# Solanum nigrum (SOLNI) [4] = test: as above; settings: 312 h, Rate 1,000 g/ha, post-emergence spray, evaluated after 13 days (100=total damage to plant; 0=no damage to plant), read-out: Percentage damage caused to weed species, post-emergence, SOLNI
# How it was run: as §1
# [5] = test system: Echinochloa crus-galli (ECHCG); test: as above; settings: 312 h, Rate 1,000 g/ha, post-emergence spray, evaluated after 13 days (100=total damage to plant; 0=no damage to plant), read-out: Percentage damage caused to weed species, post-emergence, ECHCG
# How it was run: as §1
# [6] = test system: Ipomea hederaceae (IPOHE); test: as above; settings: Ipomoea hederacea, 312 h; Rate 1,000 g/ha; post-emergence spray; evaluated after 13 days (100=total damage to plant; 0=no damage to plant); read-out: Percentage damage caused to weed species, post-emergence, IPOHE
# How it was run: as §1
# [7] = test system: Amaranthus retoflexus (AMARE); test: Pre-emergence biological efficacy, glasshouse pot test; settings: Amaranthus retroflexus, 312 h; pre-emergence, rate 1,000 g/ha, evaluated after 13 days (100=total damage to plant; 0=no damage); read-out: Percentage damage caused to weed species, AMARE
# How it was run: (§2)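 Seeds sown in standard soil in pots, held one day in glasshouse (24/16 °C day/night, 14 h light, 65% humidity), then sprayed with aqueous solution from acetone/water (50:50) formulation with 0.5% Tween 20 at 1000 or 250 g/ha. Damage scored after 13 days (0 = none, 100 = total).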
# [8] = test system: Alopecurus myosuroides (ALOMY); test: as above; settings: 312 h, pre-emergence, rate 1,000 g/ha, evaluated after 13 days (100=total damage to plant; 0=no damage), read-out: Percentage damage caused to weed species, ALOMY
# How it was run: as §2
# Setaria faberi (SETFA) [9] = test: as above; settings: 312 h, pre-emergence, rate 1,000 g/ha, evaluated after 13 days (100=total damage to plant; 0=no damage), read-out: Percentage damage caused to weed species, SETFA
# How it was run: as §2
# Solanum nigrum (SOLNI) [10] = test: as above; settings: 312 h, pre-emergence, rate 1,000 g/ha, evaluated after 13 days (100=total damage to plant; 0=no damage), read-out: Percentage damage caused to weed species, SOLNI
# How it was run: as §2
# [11] = test system: Echinochloa crus-galli (ECHCG); test: as above; settings: 312 h, pre-emergence, rate 1,000 g/ha, evaluated after 13 days (100=total damage to plant; 0=no damage), read-out: Percentage damage caused to weed species, ECHCG
# How it was run: as §2
# [12] = test system: Ipomea hederaceae (IPOHE); test: as above; settings: Ipomoea hederacea, 312 h; pre-emergence, rate 1,000 g/ha, evaluated after 13 days (100=total damage to plant; 0=no damage); read-out: Percentage damage caused to weed species, IPOHE
# How it was run: as §2
Structure (SMILES),pest or weed control at 1000 g/ha [1] [%],pest or weed control at 1000 g/ha [2] [%],pest or weed control at 1000 g/ha (Setaria faberi (SETFA) [3]) [%],pest or weed control at 1000 g/ha (Solanum nigrum (SOLNI) [4]) [%],pest or weed control at 1000 g/ha [5] [%],pest or weed control at 1000 g/ha [6] [%],pest or weed control at 1000 g/ha [7] [%],pest or weed control at 1000 g/ha [8] [%],pest or weed control at 1000 g/ha (Setaria faberi (SETFA) [9]) [%],pest or weed control at 1000 g/ha (Solanum nigrum (SOLNI) [10]) [%],pest or weed control at 1000 g/ha [11] [%],pest or weed control at 1000 g/ha [12] [%]
"COC(=O)c1nc(C2CC2)nc(N(CCO)Cc2ccc(Cl)nc2)c1Cl [Compound 157-157, 5-Chloro-4-[N-(6-chloropyrid-3-ylmethyl)-N-2-hydroxyethyl-amino]-2-cyclopropyl-6-methoxycarbonyl-pyrimidine]",50,0,0,30,0,50,100,10,30,100,20,40
"COCCN(C/C=C/c1ccco1)c1nc(C2CC2)nc(C(=O)OC)c1Cl [Compound 160-256, 5-Chloro-2-cyclopropyl-4-[N-(3-furan-2-yl-prop-2-enyl)-N-2-methoxyethyl-amino]-6-methoxycarbonyl-pyrimidine]",90,0,40,60,0,50,20,10,0,10,0,10
"COC(=O)c1nc(C2CC2)nc(N(CCC#N)Cc2ccccc2)c1Cl [Compound 161-60, 5-Chloro-4-[N-(2-cyanoethyl)-N-phenylmethyl-amino]-2-cyclopropyl-6-methoxycarbonyl-pyrimidine]",90,20,50,80,50,70,0,0,0,0,0,0
"COC(=O)c1nc(C2CC2)nc(N(CCC#N)Cc2ccco2)c1Cl [Compound 161-125, 5-Chloro-4-[N-(2-cyanoethyl)-N-furan-2-ylmethyl-amino]-2-cyclo-propyl-6-methoxy-carbonylpyrimidine]",80,0,40,50,10,40,100,20,0,30,20,80
"CCOC(=O)CCN(Cc1ccccc1)c1nc(C2CC2)nc(C(=O)OC)c1Cl [Compound 162-60, 5-Chloro-2-cyclopropyl-4-[N-(2-ethoxycarbonyl-ethyl)-N-phenylmethyl-amino]-6-methoxycarbonyl-pyrimidine]",80,10,0,60,0,70,40,10,0,20,20,70
"C=Cc1ccc(-c2c(NCc3ccco3)nc(C3CC3)nc2C(=O)OC)cc1 [Compound 187-125, 2-Cyclopropyl-5-(4-ethenylphenyl)-4-(furan-2-ylmethylamino)-6-methoxycarbonyl-pyrimidine]",70,0,0,50,0,40,0,0,0,0,0,0
"CC(C)OC(=O)c1nc(C2CC2)nc(NCc2ccco2)c1Cl [Compound 197-125, 5-Chloro-2-cyclo-propyl-4-(2-furanylmethyl-amino)-6-iso-propoxycarbonyl-pyrimidine]",100,50,100,100,70,100,100,50,70,90,70,100
"CCCOC(=O)c1nc(C2CC2)nc(NCc2ccco2)c1Cl [Compound 198-125, 5-chloro-2-cyclopropyl-4-[(furan-2-ylmethyl)-amino]-6-^npropoxycarbonylpyrimidine]",100,40,90,90,80,100,100,40,80,100,80,100
"CC(C)COC(=O)c1nc(C2CC2)nc(NCc2ccco2)c1Cl [Compound 199-125, 5-Chloro-2-cyclopropyl-4-(2-furanylmethyl-amino)-6-iso-butoxycarbonyl-pyrimidine]",100,20,70,80,70,100,100,40,80,100,50,100
O=C(OCc1ccccc1)c1nc(C2CC2)nc(NCc2ccco2)c1Cl [Compound 200-125],100,30,80,90,70,90,100,50,70,100,70,100
"COC(=O)c1nc(Cl)nc(NC2CC2)c1Cl [Compound 207-30, 4-Cyclopropylamino-2,5-dichloro-6-methoxycarbonyl-pyrimidine]",0,10,0,10,0,20,0,0,0,0,0,0
